In patent US4348264A, “Photocatalyzed process for producing carbapenams and carbapen-2-ems” (Pfizer Inc., priority 1981, dated 1982):

Legend:
Format in all cases: cell-based
Bacillus subtilis = assay: Standard disc-plate method, zone of inhibition
Text: (§1) The utility of the various compounds as intermediates to other compounds of the present invention will be evident from the preceding discussion. The antibacterial activity of these compounds, reflecting their utility in the control of susceptible bacterial infections in man and animals, as animal feed additives for promotion of growth, or as preservatives of materials biodegraded by susceptible microorganisms, is best measured by the standard disc-plate method routinely employed in clinical laboratories for determining the sensitivity of microorganisms to antimicrobial substances. Sensitivity discs are prepared by dipping a standard 6.25 mm. paper disc into a solution of the compound to be tested (conc. 1 mg./ml.) in a volatile solvent (e.g. methylene chloride) and the disc dried, producing discs containing approximately 25 microg. of the compound. The discs are placed on the surface of agar growth media seeded with the test microorganism, previously plated into Petri dishes. The plates are incubated overnight at 35°-37° C. Activity of the test compound is reflected by a zone of inhibition of bacterial growth around the test disc. The diameter of this zone provides a quantitative measure of the activity of the antibacterial substance. The activity of various compounds of the present invention is summarized in Table I. For comparison, results obtained with 10 microg. discs of ampicillin and penicillin G are included as positive controls.

Vibrio percolans = assay: Standard disc-plate method, zone of inhibition; settings: for zone of inhibition at 25 µg/disc: 25 microgram discs
Text: as §1

Escherichia coli [1] = assay: Standard disc-plate method, zone of inhibition; settings: for zone of inhibition at 25 µg/disc: Escherichia coli
Text: as §1

Micrococcus luteus = assay: Standard disc-plate method, zone of inhibition
Text: as §1

Staphylococcus aureus [2] = assay: Standard disc-plate method, zone of inhibition
Text: as §1

[3] = test system: Staphylococcus aureus (Antibiotic Resistant); assay: Standard disc-plate method, zone of inhibition; settings: for zone of inhibition at 25 µg/disc: 25 microgram discs
Text: as §1

[4] = test system: Staphylococcus aureus (Antibiotic Resistant); assay: Serial dilution-tube method, MIC; settings: brain heart infusion broth
Enterobacter cloacae = assay: Serial dilution-tube method, MIC; settings: brain heart infusion broth
[5] = test system: Escherichia coli (Antibiotic Resistant); assay: Serial dilution-tube method, MIC; settings: brain heart infusion broth
Pseudomonas aeruginosa = assay: Serial dilution-tube method, MIC; settings: brain heart infusion broth
Proteus morgani = assay: Serial dilution-tube method, MIC; settings: brain heart infusion broth
Klebsiella pneumoniae = assay: Serial dilution-tube method, MIC; settings: brain heart infusion broth
Serratia marcescens = assay: Serial dilution-tube method, MIC; settings: brain heart infusion broth
Escherichia coli [6] = assay: Serial dilution-tube method, MIC; settings: brain heart infusion broth
Staphylococcus aureus [7] = assay: Serial dilution-tube method, MIC; settings: brain heart infusion broth
[8] = Bacillus subtilis, 25 microgram discs
[9] = Micrococcus luteus, 25 microgram discs
[10] = Staphylococcus aureus, 25 microgram discs
[11] = Staphylococcus aureus, antibiotic resistant
[12] = positive control, 10 microgram discs

Compound	zone of inhibition at 25 µg/disc (Bacillus subtilis; [8])	zone of inhibition at 25 µg/disc (Vibrio percolans; Comamonas terrigena)	zone of inhibition at 25 µg/disc (Escherichia coli [1]; 25 microgram discs)	zone of inhibition at 25 µg/disc (Micrococcus luteus; [9])	zone of inhibition at 25 µg/disc (Staphylococcus aureus [2]; [10])	zone of inhibition at 25 µg/disc [3, 11]	other results
CC(=O)OC(C)C1C(=O)N2C(C(=O)O)=C(C)C(OC(C)=O)C12 (stereo not drawn) [AET H H CH3 H OAc I, Sodium 6-alpha-(1-Acetoxyethyl)-1-acetoxy-2-methylcarbapen-2-em-3-carboxylate]	25 mm	10 mm	0 mm	26 mm	21 mm		
CC(=O)OC(C)C1C(=O)N2C(C(=O)O)=C(C)C(O)C12 (stereo not drawn) [AET H H CH3 H OH I, Sodium 6-alpha-(1-Acetoxyethyl)-1-hydroxy-2-methylcarbapen-2-em-3-carboxylate]	15 mm	16 mm	0 mm	20 mm	20 mm		
CCN1CCN(C(=O)N[C@@H](C(=O)NC2C(=O)N3C(C(=O)OCOC(=O)C(C)(C)C)=C(C)C(=O)C23)c2ccccc2)C(=O)C1=O (stereo partly drawn) [EPA H POM CH3 O II, Pivaloyloxymethyl 2-Methyl-1-oxo-6-[2-phenyl-2-(4-ethyl-2,3-dioxopiperazine-1-carboxamido)acetamido]carbapen-2-em-3-carboxylate]	0 mm	20 mm	0 mm	0 mm	0 mm	0 mm	
CC(=O)OC1C(C)=C(C(=O)O)N2C(=O)CC12 (stereo not drawn) [H H H CH3 H OAc II, Sodium 1-Acetoxy-2-methylcarbapen-2-em-3-carboxylate]	13 mm	18 mm	0 mm			8 mm	
CC(=O)OCC1=C(C(=O)OCOC(=O)C(C)(C)C)N2C(=O)CC2C1=O (stereo not drawn) [H H POM CH2OAc O II, Pivaloyloxymethyl 2-Acetoxymethyl-1-oxocarbapen-2-em-3-carboxylate]					0 mm	12 mm	
CC(=O)OC1C(C)=C(C(=O)OCOC(=O)C(C)(C)C)N2C(=O)CC12 (stereo not drawn) [H H POM CH3 H OAc II, Pivaloyloxymethyl 1-Acetoxy-2-methylcarbapen-2-em-3-carboxylate]	14 mm			0 mm	13 mm	0 mm	
CC1=C(C(=O)OCOC(=O)C(C)(C)C)N2C(=O)CC2C1O (stereo not drawn) [H H POM CH3 H OH II, Pivaloyloxymethyl 1-Hydroxy-2-methylcarbapen-2-em-3-carboxylate]	15 mm		10 mm	10 mm	15 mm	13 mm	
CC(=O)OC1C(C)=C(C(=O)[O-])N2C(=O)C(C(C)O)C12.[Na+] (stereo not drawn) [HET H H CH3 H OAc I, Sodium 6-alpha-(1-Hydroxyethyl)-1-acetoxy-2-methylcarbapen-2-em-3-carboxylate]							Minimum Inhibitory Concentration [4]: 100 µg/mL; Minimum Inhibitory Concentration (Enterobacter cloacae): > 200 µg/mL; Minimum Inhibitory Concentration [5]: > 200 µg/mL; Zone of Inhibition (Bacillus subtilis; 25 microgram discs): 16 mm; Zone of Inhibition (Escherichia coli [1]; 25 microgram discs): 0 mm; Zone of Inhibition (Micrococcus luteus; 25 microgram discs): 13 mm; Zone of Inhibition (Staphylococcus aureus [2]; 25 microgram discs): 0 mm; Minimum Inhibitory Concentration (Pseudomonas aeruginosa): > 200 µg/mL; Minimum Inhibitory Concentration (Proteus morgani): > 200 µg/mL; Minimum Inhibitory Concentration (Klebsiella pneumoniae): > 200 µg/mL; Minimum Inhibitory Concentration (Serratia marcescens): > 200 µg/mL; Minimum Inhibitory Concentration (Escherichia coli [6]): > 200 µg/mL
CC1=C(C(=O)[O-])N2C(=O)C(C(C)O)C2C1O.[Na+] (stereo not drawn) [HET H H CH3 H OH I]							Minimum Inhibitory Concentration [4]: 3.12 µg/mL; Minimum Inhibitory Concentration (Staphylococcus aureus [7]): 1.56 µg/mL; Minimum Inhibitory Concentration (Enterobacter cloacae): 25 µg/mL; Minimum Inhibitory Concentration [5]: 12.5 µg/mL; Zone of Inhibition (Bacillus subtilis; 25 microgram discs): 29 mm; Zone of Inhibition (Escherichia coli [1]; 25 microgram discs): 23 mm; Zone of Inhibition (Micrococcus luteus; 25 microgram discs): 39 mm; Zone of Inhibition (Staphylococcus aureus [2]; 25 microgram discs): 29 mm; Minimum Inhibitory Concentration (Pseudomonas aeruginosa): 200 µg/mL; Minimum Inhibitory Concentration (Proteus morgani): 25 µg/mL; Minimum Inhibitory Concentration (Klebsiella pneumoniae): 50 µg/mL; Minimum Inhibitory Concentration (Serratia marcescens): 50 µg/mL; Minimum Inhibitory Concentration (Escherichia coli [6]): 6.25 µg/mL
COC1=C(C(=O)O)N2C(=O)C(C(C)O)C2C1O (stereo not drawn) [HET H H OCH3 H OH I, Sodium 6-alpha-(1-Hydroxyethyl)-1-hydroxy-2-methoxycarbapen-2-em-3-carboxylate]	22 mm		11 mm	42 mm	27 mm		
CC1=C(C(=O)OCOC(=O)C(C)(C)C)N2C(=O)C(C(C)O)C2C1O (stereo not drawn) [HET H POM CH3 H OH I, pivaloyloxymethyl 6-alpha-(1-hydroxyethyl)-1-hydroxy-2-methylcarbapen-2-em-3-carboxylate]							Zone of Inhibition (Bacillus subtilis; 25 microgram discs): 24 mm; Zone of Inhibition (Escherichia coli [1]; 25 microgram discs): 14 mm; Zone of Inhibition (Micrococcus luteus; 25 microgram discs): 31 mm; Zone of Inhibition (Staphylococcus aureus [2]; 25 microgram discs): 27 mm
Cc1onc(-c2ccccc2)c1C(=O)NC1C(=O)N2C(C(=O)OCOC(=O)C(C)(C)C)C(C)C(=O)C12 (stereo not drawn) [MPI H POM CH3 O I, Pivaloyloxymethyl 2-Methyl-6-(5-methyl-3-phenylisoxazole-4-carboxamido)-1-oxocarbapenam-3-carboxylate]	15 mm	0 mm	0 mm		0 mm	11 mm	
CC1=C(C(=O)OCOC(=O)C(C)(C)C)N2C(=O)C(NC(=O)c3c(-c4ccccc4)noc3C)C2C1=O (stereo not drawn) [MPI H POM CH3 O II, Pivaloyloxymethyl 2-Methyl-6-(5-methyl-3-phenylisoxazole-4-carboxamido)-1-oxocarbapen-2-em-3-carboxylate]	21 mm	0 mm	0 mm		0 mm	9 mm	
CC(=O)OC1C(C)C(C(=O)O)N2C(=O)C(NC(=O)COc3ccccc3)C12 (stereo not drawn) [PMA H H CH3 H OAc I, 1-Acetoxy-2-methyl-6-(2-phenoxyacetamido)carbapenam-3-carboxylic Acid]	0 mm		0 mm	0 mm	0 mm	0 mm	
COC1(NC(=O)COc2ccccc2)C(=O)N2C(C(=O)OCOC(=O)C(C)(C)C)=C(C)C(=O)C21 (stereo not drawn) [PMA OMe POM CH3 O II, Pivaloyloxymethyl 6-Methoxy-2-methyl-1-oxo-6-(2-phenoxyacetamido)carbapen-2-em-3-carboxylate]	33 mm	0 mm	0 mm		8 mm	0 mm	
CC1(C)S[C@@H]2[C@H](NC(=O)Cc3ccccc3)C(=O)N2[C@H]1C(=O)O [Penicillin G, reference compound]							Zone of Inhibition (Bacillus subtilis; [12]): 33 mm; Zone of Inhibition (Vibrio percolans; [12]): 32 mm; Zone of Inhibition ([3]; positive control, 10 microgram discs, antibiotic resistant): 0 mm; Zone of Inhibition (Escherichia coli [1]; [12]): 0 mm; Zone of Inhibition (Micrococcus luteus; [12]): 45 mm; Zone of Inhibition (Staphylococcus aureus [2]; [12]): 32 mm
CC1(C)S[C@@H]2[C@H](NC(=O)Cc3ccccc3)C(=O)N2[C@H]1C(=O)O [Penicillin, reference compound]							zone of inhibition at 10 µg/disc (Bacillus subtilis; Bacillus subtilis, positive control, 10 microgram discs): 32 mm; zone of inhibition at 10 µg/disc (Vibrio percolans; Comamonas terrigena, positive control, 10 microgram discs): 33 mm; zone of inhibition at 10 µg/disc ([3]; Staphylococcus aureus): 0 mm; Zone of Inhibition (Escherichia coli [1]; [12]): 16 mm; zone of inhibition at 10 µg/disc (Micrococcus luteus; Micrococcus luteus): 45 mm; zone of inhibition at 10 µg/disc (Staphylococcus aureus [2]; Staphylococcus aureus, positive control, 10 microgram discs): 31 mm
